In patent US20210307376A1, “Compositions Comprising Nicotine and/or Nicotine Salts and Ultrasonic Aerosolisation of Compositions Comprising Nicotine and/or Nicotine Salts” (priority 2020, published 2021):

Columns and labels:
[1] = cited from earlier work; for P (octanol:water partitioning coefficient): [solute in octanol]:[solute in aqueous buffer]; for P (octanol:water partitioning coefficient) / % Aqueous: phosphate buffer; for P (octanol:water partitioning coefficient) / logP / % Aqueous: pH 7.4; for logP: octanol : aqueous phosphate buffer; for % Nonpolar: share of solute in octanol phase
[2] = P 0.69 versus P 0.00145
Description: The partitioning coefficient can be used as a measure of lipid solubility.

nicotinic receptors = conditions: inhaled; compared to other nicotine salts such as nicotine salicylate; cited from earlier work

Compound | P (octanol:water partitioning coefficient) [1] | logP [1] | % Aqueous [1] [%] | % Nonpolar [1] [%] | increase of partitioning coefficient P in comparison to levulinic acid [2] [fold] | increase in proportion of nicotine binding sites (nicotinic receptors)
CC(=O)CCC(=O)O [Levulinic Acid] | 0.00145 | −2.84 | 99.85 | 0.15 |  | 
CN1CCCC1c1cccnc1 (centres unmarked) [Nicotine] | 2.82 | 0.45 | 26 | 74 |  | 
Nicotine Levulinate | 0.69 | −0.16 | 59 | 41 | 500 | 20-50%
